Calls of active or inactive are those of the source.
Assays:
[1] = Vero cell cytotoxicity, dose response, cytotoxicity control for Vif-APOBEC3G degradation inhibitor project, Vero cells (AID 1117358); type: functional; details: Human immunodeficiency virus 1, Vero
[2] = target: T1, Phospholipase D1 (Homo sapiens, UniProt Q13393); assay: PLD1 Cellular Concentration Response Study.; type: functional
T1 sequence (Q13393 whole entry): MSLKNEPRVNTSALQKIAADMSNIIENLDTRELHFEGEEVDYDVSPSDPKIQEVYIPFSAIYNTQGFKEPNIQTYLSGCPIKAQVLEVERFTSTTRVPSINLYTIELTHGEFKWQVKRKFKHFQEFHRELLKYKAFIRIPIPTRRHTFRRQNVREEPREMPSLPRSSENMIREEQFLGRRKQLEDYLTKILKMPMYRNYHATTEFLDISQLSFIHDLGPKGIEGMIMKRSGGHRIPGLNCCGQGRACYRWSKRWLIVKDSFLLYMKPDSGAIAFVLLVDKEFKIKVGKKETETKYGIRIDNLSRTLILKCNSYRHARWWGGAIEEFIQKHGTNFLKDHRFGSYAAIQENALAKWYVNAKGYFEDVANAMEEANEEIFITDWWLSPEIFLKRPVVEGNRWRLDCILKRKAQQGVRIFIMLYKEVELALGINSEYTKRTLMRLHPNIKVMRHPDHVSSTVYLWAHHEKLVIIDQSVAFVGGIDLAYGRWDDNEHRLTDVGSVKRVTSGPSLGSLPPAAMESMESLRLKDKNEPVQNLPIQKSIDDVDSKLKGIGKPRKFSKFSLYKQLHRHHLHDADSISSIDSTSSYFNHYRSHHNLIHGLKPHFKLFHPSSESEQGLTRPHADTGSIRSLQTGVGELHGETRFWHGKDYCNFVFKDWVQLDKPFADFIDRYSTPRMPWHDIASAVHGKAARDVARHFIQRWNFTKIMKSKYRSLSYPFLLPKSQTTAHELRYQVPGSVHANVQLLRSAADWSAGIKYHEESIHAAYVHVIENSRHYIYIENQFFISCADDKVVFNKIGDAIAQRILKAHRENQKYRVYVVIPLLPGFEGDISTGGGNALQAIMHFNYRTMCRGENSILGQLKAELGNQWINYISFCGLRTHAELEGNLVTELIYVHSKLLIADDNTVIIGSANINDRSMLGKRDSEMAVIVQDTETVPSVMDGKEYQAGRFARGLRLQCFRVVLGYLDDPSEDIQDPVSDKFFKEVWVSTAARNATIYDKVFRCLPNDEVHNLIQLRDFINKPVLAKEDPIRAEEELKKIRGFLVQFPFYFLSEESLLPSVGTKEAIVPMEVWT

[3] = target: Phospholipase D2 (Homo sapiens, UniProt O14939); assay: PLD2 Cellular Concentration Response Study.; type: functional
Sequence of Phospholipase D2 (O14939 whole entry): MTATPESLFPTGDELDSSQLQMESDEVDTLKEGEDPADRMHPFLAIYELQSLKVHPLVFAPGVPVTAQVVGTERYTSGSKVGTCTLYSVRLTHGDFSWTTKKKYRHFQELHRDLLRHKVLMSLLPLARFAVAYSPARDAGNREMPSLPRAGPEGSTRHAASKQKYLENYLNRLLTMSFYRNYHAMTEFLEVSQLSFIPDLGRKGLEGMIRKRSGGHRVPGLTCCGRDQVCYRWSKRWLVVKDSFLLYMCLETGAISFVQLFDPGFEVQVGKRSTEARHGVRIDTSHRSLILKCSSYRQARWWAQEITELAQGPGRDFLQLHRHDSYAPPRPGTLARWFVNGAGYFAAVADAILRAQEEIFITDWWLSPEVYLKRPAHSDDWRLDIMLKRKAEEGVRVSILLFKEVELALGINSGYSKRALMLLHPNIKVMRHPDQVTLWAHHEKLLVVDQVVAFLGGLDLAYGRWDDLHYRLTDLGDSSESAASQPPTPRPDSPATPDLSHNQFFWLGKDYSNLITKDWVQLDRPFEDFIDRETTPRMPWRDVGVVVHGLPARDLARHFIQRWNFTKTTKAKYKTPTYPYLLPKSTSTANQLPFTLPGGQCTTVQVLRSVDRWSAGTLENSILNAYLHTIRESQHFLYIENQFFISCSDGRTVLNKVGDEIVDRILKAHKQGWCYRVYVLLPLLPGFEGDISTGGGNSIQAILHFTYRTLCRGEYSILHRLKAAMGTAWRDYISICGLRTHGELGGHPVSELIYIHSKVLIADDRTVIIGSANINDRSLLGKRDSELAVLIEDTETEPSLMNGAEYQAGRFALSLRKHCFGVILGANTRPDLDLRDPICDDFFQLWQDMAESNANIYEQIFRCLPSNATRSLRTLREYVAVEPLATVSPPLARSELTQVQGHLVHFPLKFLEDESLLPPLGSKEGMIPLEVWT

[4] = inhibitors of Vif binding to APOBEC3G peptide, primary screen, biochemical, TR-FRET, GST-Vif 1-94, biotin-A3G peptide, dose response retest (AID 1117319); type: functional;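 also: TR-FRET signal of purified GST-Vif binding a biotinylated A3G peptide; inhibitors lower the FRET signal by blocking Vif and A3G binding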
[5] = target: T2, Low molecular weight phosphotyrosine protein phosphatase (Homo sapiens, UniProt P24666); assay: LMPTP phosphatase inhibitors, dose response, biochemical, OMFP substrate, fluorescence intensity, set 2 (AID 743307); type: functional
T2 sequence (P24666 whole entry): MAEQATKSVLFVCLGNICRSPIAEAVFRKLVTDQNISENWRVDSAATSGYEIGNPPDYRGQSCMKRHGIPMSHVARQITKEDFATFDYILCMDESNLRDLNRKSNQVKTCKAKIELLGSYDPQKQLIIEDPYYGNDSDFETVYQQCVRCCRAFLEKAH

[6] = target: T2, Low molecular weight phosphotyrosine protein phosphatase; assay: LMPTP phosphatase inhibitors, colorimetric pNPP readout, dose response, orthogonal assay, biochemical, absorbance, pNPP substrate, LMPTP-A isoform, set 2 (AID 743308); type: functional
[7] = target: G-protein coupled receptor 183 (Homo sapiens, UniProt P32249); assay: SAR confirmation of small molecule antagonists of the EBI2 receptor via a luminescent beta-arrestin assa.; type: functional
Sequence of G-protein coupled receptor 183 (P32249 whole entry): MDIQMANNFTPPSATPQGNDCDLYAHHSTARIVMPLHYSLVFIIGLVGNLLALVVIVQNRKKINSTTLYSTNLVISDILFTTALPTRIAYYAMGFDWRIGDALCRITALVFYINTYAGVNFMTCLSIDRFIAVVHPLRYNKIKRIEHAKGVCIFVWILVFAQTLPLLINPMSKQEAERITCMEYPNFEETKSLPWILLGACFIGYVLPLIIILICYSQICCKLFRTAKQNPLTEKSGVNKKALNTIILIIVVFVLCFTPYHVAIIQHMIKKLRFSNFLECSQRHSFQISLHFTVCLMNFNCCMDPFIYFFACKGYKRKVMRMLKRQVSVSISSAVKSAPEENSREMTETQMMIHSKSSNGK

[8] = target: RNA-editing ligase 1, mitochondrial (Trypanosoma brucei brucei, UniProt P86926); assay: TbREL1 ligase inhibitors, dose response, biochemical, fluorescence, Trypanosoma brucei (AID 1117295); type: functional
Sequence of RNA-editing ligase 1, mitochondrial (P86926 whole entry): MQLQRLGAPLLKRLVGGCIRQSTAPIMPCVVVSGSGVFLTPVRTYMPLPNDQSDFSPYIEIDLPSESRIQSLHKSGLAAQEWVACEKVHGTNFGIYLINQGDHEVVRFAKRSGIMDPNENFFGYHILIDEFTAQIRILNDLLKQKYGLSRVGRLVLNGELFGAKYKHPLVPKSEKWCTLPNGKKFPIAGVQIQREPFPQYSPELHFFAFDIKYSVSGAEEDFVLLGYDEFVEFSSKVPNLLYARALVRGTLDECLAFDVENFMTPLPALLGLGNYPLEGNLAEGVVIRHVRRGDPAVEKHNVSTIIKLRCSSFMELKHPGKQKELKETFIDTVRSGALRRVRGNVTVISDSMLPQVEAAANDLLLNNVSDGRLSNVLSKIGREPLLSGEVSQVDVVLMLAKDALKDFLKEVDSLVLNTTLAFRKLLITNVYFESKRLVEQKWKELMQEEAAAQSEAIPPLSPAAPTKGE

[9] = target: T3, Estrogen receptor beta (Homo sapiens, UniProt Q92731);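 also: recombinant ER-beta bound to coactivator SRC1 peptide in presence of estradiol agonist; inhibitors block coactivator peptide binding and lower the FRET signal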
T3 sequence (Q92731 whole entry): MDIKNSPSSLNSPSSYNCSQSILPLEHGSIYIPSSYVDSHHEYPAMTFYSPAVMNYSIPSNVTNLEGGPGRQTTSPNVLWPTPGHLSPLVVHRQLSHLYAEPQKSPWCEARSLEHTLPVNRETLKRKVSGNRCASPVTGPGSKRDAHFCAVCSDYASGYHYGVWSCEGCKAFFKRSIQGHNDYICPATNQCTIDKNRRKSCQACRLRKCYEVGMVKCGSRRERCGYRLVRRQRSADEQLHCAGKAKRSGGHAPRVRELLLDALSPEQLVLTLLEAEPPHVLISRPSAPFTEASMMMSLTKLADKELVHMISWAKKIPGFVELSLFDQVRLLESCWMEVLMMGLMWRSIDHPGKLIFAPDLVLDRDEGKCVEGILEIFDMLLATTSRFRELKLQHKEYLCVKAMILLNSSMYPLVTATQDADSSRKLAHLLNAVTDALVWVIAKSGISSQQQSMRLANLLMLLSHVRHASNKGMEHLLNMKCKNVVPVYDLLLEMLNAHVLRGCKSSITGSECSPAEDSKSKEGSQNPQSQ

[10] = target: T3, Estrogen receptor beta; assay: ERβ–SRC-3 coactivator interaction inhibitors, confirmation, orthogonal assay, biochemical, ELISA, streptavidin-HRP readout (AID 1060)
[11] = target: Heat shock protein HSP 90-alpha (Homo sapiens, UniProt P07900); type: functional, organism-based
[12] = target: T4, Replicative DNA helicase DnaB (Mycobacterium tuberculosis, UniProt P9WMR3); assay: DnaB intein splicing inhibitors, dose response, biochemical, cell-free fluorescence (AID 449749); type: functional
T4 sequence (P9WMR3 whole entry): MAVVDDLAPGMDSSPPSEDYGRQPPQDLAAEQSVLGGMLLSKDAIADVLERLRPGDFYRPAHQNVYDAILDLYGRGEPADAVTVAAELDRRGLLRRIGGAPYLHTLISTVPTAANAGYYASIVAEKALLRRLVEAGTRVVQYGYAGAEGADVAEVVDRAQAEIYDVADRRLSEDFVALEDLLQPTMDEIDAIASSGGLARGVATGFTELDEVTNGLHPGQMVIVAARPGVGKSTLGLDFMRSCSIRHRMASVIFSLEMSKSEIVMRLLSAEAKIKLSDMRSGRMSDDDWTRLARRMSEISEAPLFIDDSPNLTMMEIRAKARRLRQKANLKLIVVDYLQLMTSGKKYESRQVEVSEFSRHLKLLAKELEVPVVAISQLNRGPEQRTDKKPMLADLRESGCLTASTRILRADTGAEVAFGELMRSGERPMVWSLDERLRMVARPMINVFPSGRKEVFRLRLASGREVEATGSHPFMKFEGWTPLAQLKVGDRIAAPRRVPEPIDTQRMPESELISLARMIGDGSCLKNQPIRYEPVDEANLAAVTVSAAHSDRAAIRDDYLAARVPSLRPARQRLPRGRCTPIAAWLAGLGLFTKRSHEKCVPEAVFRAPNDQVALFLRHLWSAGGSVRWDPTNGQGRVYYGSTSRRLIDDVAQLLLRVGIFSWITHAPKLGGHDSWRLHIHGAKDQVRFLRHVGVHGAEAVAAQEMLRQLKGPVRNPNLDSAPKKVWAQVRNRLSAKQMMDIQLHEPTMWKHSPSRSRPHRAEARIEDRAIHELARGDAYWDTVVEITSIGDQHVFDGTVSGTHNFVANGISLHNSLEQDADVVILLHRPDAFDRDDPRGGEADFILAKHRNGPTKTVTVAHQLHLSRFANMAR

[13] = target: T5, Protein RecA (Mycobacterium tuberculosis, UniProt P9WHJ3); assay: Fluorescence Cell-Free Homogeneous Dose Retest to Identify Inhibitors of RecA-Intein Splicing Activity. [Related pubchem assays (depositor defined):AID2097, AID2223, AID489010, AID492950]; type: functional
T5 sequence (P9WHJ3 whole entry): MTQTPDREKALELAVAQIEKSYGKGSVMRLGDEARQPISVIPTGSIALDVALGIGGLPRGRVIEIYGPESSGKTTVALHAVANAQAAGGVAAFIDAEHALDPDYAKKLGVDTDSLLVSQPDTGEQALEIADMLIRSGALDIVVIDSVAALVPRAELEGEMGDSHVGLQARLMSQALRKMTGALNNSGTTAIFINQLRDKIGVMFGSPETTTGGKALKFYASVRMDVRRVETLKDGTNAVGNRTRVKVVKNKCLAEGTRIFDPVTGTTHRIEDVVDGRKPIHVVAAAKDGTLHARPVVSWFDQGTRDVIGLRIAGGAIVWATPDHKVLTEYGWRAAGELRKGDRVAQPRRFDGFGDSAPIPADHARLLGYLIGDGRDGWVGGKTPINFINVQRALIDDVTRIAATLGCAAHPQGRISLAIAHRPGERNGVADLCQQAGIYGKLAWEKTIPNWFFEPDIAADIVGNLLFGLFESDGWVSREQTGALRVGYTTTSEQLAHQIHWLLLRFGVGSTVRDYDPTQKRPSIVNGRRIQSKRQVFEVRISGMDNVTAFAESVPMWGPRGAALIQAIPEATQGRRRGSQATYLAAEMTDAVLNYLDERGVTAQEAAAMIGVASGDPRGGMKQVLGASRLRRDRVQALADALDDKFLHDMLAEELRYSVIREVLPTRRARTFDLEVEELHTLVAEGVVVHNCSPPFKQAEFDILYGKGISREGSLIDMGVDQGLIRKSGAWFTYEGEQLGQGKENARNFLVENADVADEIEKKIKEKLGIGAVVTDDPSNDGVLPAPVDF

[14] = Artemis endonuclease inhibitor potency, dose response, biochemical, fluorescence intensity (AID 720701); type: functional;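 also: Artemis endonuclease enzyme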
[15] = target: T6, Apoptotic protease-activating factor 1 (Homo sapiens, UniProt O14727); type: functional
T6 sequence (O14727 whole entry): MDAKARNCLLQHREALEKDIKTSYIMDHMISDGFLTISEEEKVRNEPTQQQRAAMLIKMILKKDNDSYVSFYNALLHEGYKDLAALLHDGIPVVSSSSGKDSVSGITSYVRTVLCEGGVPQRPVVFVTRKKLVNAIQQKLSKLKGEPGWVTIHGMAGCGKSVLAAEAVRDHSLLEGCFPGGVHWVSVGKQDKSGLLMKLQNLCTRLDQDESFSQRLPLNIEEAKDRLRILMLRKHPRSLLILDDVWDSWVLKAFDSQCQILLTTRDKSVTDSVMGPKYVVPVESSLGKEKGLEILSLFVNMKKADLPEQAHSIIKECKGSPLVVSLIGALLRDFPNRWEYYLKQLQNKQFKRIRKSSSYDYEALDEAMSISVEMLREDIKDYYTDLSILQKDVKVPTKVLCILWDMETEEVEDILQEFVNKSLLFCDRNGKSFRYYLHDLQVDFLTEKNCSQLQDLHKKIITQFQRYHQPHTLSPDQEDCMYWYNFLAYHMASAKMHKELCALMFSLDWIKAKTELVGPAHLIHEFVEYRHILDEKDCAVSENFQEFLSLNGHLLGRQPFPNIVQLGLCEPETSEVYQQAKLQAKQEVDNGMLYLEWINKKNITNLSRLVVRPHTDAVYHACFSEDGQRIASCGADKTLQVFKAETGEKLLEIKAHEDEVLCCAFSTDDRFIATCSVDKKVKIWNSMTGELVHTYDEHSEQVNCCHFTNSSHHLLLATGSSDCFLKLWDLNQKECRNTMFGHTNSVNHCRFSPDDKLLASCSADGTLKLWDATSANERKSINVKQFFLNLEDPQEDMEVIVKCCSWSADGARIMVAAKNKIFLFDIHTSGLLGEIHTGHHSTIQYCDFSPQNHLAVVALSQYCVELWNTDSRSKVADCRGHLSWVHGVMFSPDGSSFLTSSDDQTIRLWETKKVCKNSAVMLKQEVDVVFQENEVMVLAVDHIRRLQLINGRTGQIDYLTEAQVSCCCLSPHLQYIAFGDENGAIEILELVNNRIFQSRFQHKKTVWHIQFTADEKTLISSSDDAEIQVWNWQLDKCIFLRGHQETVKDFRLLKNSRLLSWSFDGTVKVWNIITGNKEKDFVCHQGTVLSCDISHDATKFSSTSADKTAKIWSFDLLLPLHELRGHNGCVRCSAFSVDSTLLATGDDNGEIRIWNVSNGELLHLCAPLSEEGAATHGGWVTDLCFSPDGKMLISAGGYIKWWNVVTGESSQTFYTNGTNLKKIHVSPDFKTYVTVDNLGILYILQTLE

[16] = target: T7, Protein Tat (Human immunodeficiency virus type 1 group M subtype B (isolate HXB2)(HIV-1), UniProt P04608); type: functional;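 also: tat binding to TAR RNA read out by fluorescence polarization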
T7 sequence (P04608 whole entry): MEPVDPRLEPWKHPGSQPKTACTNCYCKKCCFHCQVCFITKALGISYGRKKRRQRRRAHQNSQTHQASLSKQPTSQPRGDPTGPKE

C=C(Cl)COc1ccc2c(CCC)cc(=O)oc2c1
CC50 [1]: > 40 µM (active)

O=C(NCCN1CCC2(CC1)C(=O)NCN2Cc1cccnc1)c1ccc2ccccc2c1Br
IC50 [2]: 20 µM (active) | IC50 [3]: 1.24 µM (active)

O=C(O)c1ccccc1NS(=O)(=O)c1ccccc1C(F)(F)F
IC50 [4]: > 100 µM (active)

O=C(NCCN1CCC2(CC1)C(=O)NCN2Cc1cccc2ccccc12)c1ccc2ccccc2c1
IC50 [2]: 1.05 µM (active) | IC50 [3]: 0.16 µM (active)

c1ccc(-c2nc(N3CCCCCC3)c3ccccc3n2)cc1
IC50 [5]: 72.2 µM (inactive) | IC50 [6]: > 80 µM (inactive)

O=C(/C=C/c1ccc(Br)cc1)N1CCN(Cc2ccc(Cl)cc2)CC1
IC50 [7]: 0.00103 µM (active)

COC(=O)C1=C(C)N(Cc2ccccc2C(F)(F)F)C(NCc2ccc(C(F)(F)F)cc2)=NC1c1ccc(Cl)cc1 (stereo not drawn)
IC50 [8]: > 96.6 µM (inactive)

Cc1noc(C)c1CSCC(=O)OCC(=O)Nc1sccc1C#N
IC50 [9]: 15.8 µM (active) | IC50 [10]: < 77 µM (not active)

Cc1[nH]n(-c2ccccc2)c(=O)c1C(C[N+](=O)[O-])c1ccc(Br)cc1 (stereo not drawn)
AC50 [11]: 7.85 µM (active) | AC50 [12]: 7.55 µM (active) | EC50 [13]: 5.73 µM (active) | IC50 [14]: > 20 µM (inactive) | IC50 [15]: 4.17 µM (active)

O=C(Cc1ccc(Br)cc1)N1CCN(Cc2ccc(Cl)cc2)CC1
IC50 [7]: > 1 µM (inactive)

CCc1nc(OCc2ccco2)c2sc3nc4c(cc3c2n1)COC(C)(C)C4
IC50 [4]: > 100 µM (active) | CC50 [1]: > 40 µM (active) | IC50 [16]: > 100 µM (active)

c1ccc(-c2cc(NCCCN3CCOCC3)c3ccccc3n2)cc1
IC50 [5]: 7.68 µM (active) | IC50 [6]: 12.6 µM (active)

Reference: ChEMBL document CHEMBL1201862, “PubChem BioAssay data set” (2004)
